Results published in US20070203066A1, “Compositions and methods for inhibiting cellular proliferation” (priority 2005, published 2007).
Read-outs that look alike come from different tables or passages of the source. Non-standard residues stand in square brackets, D forms with d. Primed or numbered codes have the meaning given here. No end group written: not given here. Ida = iminodiacetic acid linker, its two carboxyls bind the Lys side-chain amines of two peptides, giving a homodimer; Ida(3) = iminodiacetic acid linker, Lys side-chain amines bound to its two carboxyl groups; Ida(4) = iminodiacetic acid linker (dimerization linker bound to lysine side chain); Ida″ = iminodiacetic acid linker bound to the Lys side-chain amine, forming a dimer; Dip = N[C@H](C(=O)O)C(c1ccccc1)c1ccccc1; ATA = not defined here; Ahx = NCCCCCC(=O)O

System: HUVECs
Format: cell-based
Summary of the method: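 Proliferation read-out: BrdU incorporation after 48-hour culture (37 ° C, 5% CO2) with graded peptide doses. Cells were in EBM with 2% FCS at 5,000 per well, driven by VEGF (5 ng/ml) or bFGF (10 ng/ml), added after ≥12-hour attachment.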

[1] = HUVEC proliferation, bFGF at 10 ng/ml or VEGF at 5 ng/ml, 48 hours, BrdU incorporation, read-out: IC50 on HUVECs

Compound	IC50 [1]	IC50 (48 h)
355 (Ac-ARRRR[dQ]RVAIIFK; not fully specified) [compound 355]	> 30 µM	
KTKRKRKKQRVKIAYEENM [compound 41]	> 30 µM	
386 (Ac-ARRRRQNVAIYFK-NH2; not fully specified (residue 13); also: homodimer via Ida linker on Lys13 side chain, Ida amine Boc) [compound 386]	< 10 µM	
191 (Ac-AARRRQRVRIIF; also: dimer: C-terminal Phe bound to an amino group of a Lys linker, 2 chains per Lys) [compound 191]	< 10 µM	
286 (Ac-RRRRAQHVHIYFK-NH2; not fully specified (residue 13); also: homodimer via Ida linker on Lys13 side chain) [compound 286]	< 10 µM	
27 (Ac-RTRRRRRRQRVRIAYEEIFVRNM[Ahx]K; not fully specified) [compound 27]	10 to 30 µM	
243 (Ac-RRHRRQRVHIIF; also: dimer via C-terminal Phe to Lys linker) [compound 243]	< 10 µM	
170 (Ac-RRRRRQRVRIIFK; also: homodimer via Ida-PEG 20 kDa linker on Lys13 side chains) [compound 170]	< 10 µM	
KTKRKRKKQAVKIIFVQNM [compound 114]	> 30 µM	
RKRKKQRVKIAYEEIFVKNM [compound 4]	10 to 30 µM	
199 (Ac-RARRAQRVRIIF; also: dimer: C-terminal Phe bound to an amino group of a Lys linker, 2 chains per Lys) [compound 199]	< 10 µM	
266 (Ac-RRRRRQAVAIWFK; not fully specified (C-terminus); also: homodimer: side chain of Lys13 bound to an Ida linker) [compound 266]	< 10 µM	
CC[C@H](C)[C@H](NC(=O)[C@H](C)NC(=O)[C@@H](NC(=O)[C@H](C)NC(=O)[C@H](CCC(N)=O)NC(=O)[C@H](CCCNC(=N)N)NC(=O)[C@H](CCCNC(=N)N)NC(=O)[C@H](CCCNC(=N)N)NC(=O)[C@H](CCCNC(=N)N)NC(=O)[C@H](CCCNC(=N)N)NC(C)=O)C(C)C)C(=O)N[C@@H](Cc1c[nH]cn1)C(=O)N[C@@H](Cc1ccccc1)C(=O)N[C@@H](CCCCNC(=O)CN(CC(=O)NCCCC[C@H](NC(=O)[C@H](Cc1ccccc1)NC(=O)[C@H](Cc1c[nH]cn1)NC(=O)[C@@H](NC(=O)[C@H](C)NC(=O)[C@@H](NC(=O)[C@H](C)NC(=O)[C@H](CCC(N)=O)NC(=O)[C@H](CCCNC(=N)N)NC(=O)[C@H](CCCNC(=N)N)NC(=O)[C@H](CCCNC(=N)N)NC(=O)[C@H](CCCNC(=N)N)NC(=O)[C@H](CCCNC(=N)N)NC(C)=O)C(C)C)[C@@H](C)CC)C(N)=O)C(=O)CCNC(=O)OC(C)(C)C)C(N)=O [Peptide 250]		< 10 µM
483 (Ac-QRRRRQAVAIKF; not fully specified (residue 11); also: homodimer via Ida linker on Lys11 side chain) [compound 483]	< 10 µM	
450 (Ac-ARRRRQAVAILFK-NH2; not fully specified (residue 13); also: homodimer via Ida linker at K13) [compound 450]	< 10 µM	
396 (Ac-ARRRRQAVWIYFK; not fully specified (residue 13, C-terminus); also: homodimer of residues 1-13 via Ida linker at Lys13 side chain) [compound 396]	< 10 µM	
326 (Ac-RRRRHQHVRIYFK; not fully specified (residue 13, C-terminus); also: homodimer via Ida linker on Lys13 side chain) [compound 326]	< 10 µM	
426 (Ac-ARRRRQYVAIYFK; not fully specified (residue 13, C-terminus); also: homodimer of residues 1-13 via Ida linker on Lys13 side chain) [compound 426]	< 10 µM	
391 (Ac-ARRRRQAVNIYFK; not fully specified (residue 13, C-terminus); also: homodimer of residues 1-13 via Ida linker at Lys13 side chain) [compound 391]	< 10 µM	
323 (Ac-RHRRRQHVRIYFK(Ida)-NH2; also: homodimer via Ida linker on Lys13 side chain) [compound 323]	< 10 µM	
368 (Ac-ARRRRQRVA[Dip]YFK-NH2; not fully specified (residue 13); printed as [AcARRRRQRVA3,3-diphenylAlaYFK*]; also: homodimer via Ida linker on Lys13 side chain, Boc on Ida amine) [compound 368]	< 10 µM	
186 (Ac-RRHRRQRVRIIF; also: homodimer via C-terminal Lys linker) [compound 186]	< 10 µM	
265 (Ac-RRRRRQAVAIGFK; not fully specified (C-terminus); also: homodimer: side chain of Lys13 bound to an Ida linker) [compound 265]	< 10 µM	
313 (Ac-RARRRQAVAIGFK(Ida)-NH2; also: homodimer via Ida linker on Lys13 side chain) [compound 313]	10 to 30 µM	
KTKRKRKKQRVAIIFVQNM [compound 112]	< 10 µM	
332 (XRRRHQHVRIYFK; not fully specified; Xaa = Acylated Histidine; The side chain of Lysine at position 13 is covalently bound to an Ida linker forming a homodimer of residues 1 through 13.) [compound 332]	< 10 µM	

Compound	IC50 [1]	IC50 (48 h)
KTKRKRKKQRVKIAYEEIFAANM [compound 46]	10 to 30 µM	
427 (Ac-ARRRRQAVAIK(Ida(4))F; also: homodimer of residues 1-12 via Ida linker on Lys11 side chain) [compound 427]	< 10 µM	
KTKRKRKKARVKIIFVQNM [compound 115]	< 10 µM	
364 (Ac-ARRRRQRVAEYFK-NH2; not fully specified (residue 13); also: homodimer of residues 1-13 via Ida linker on K13 side chain) [compound 364]	> 30 µM	
128 (KTKRKRKKQRVKI[Ahx][Ahx]IF; also: dimer: C-terminus of Phe17 of each chain bound to one amino group of a Lysine linker) [compound 128]	< 10 µM	
249 (Ac-RRRRRQAVAIEFK; not fully specified (C-terminus); also: homodimer: side chain of Lys13 bound to an Ida linker) [compound 249]	10 to 30 µM	
KTKRKRKKQRVKIAYEE [compound 18]	10 to 30 µM	
RKKQRVKIAYEEIF [compound 69]	> 30 µM	
200 (Ac-RARRRQAVRIIF; also: dimer: C-terminal Phe bound to an amino group of a Lys linker, 2 chains per Lys) [compound 200]	< 10 µM	
260 (Ac-ARRR[dR]QRVAIIFK-NH2; not fully specified (residue 13); also: homodimer via Ida linker on Lys13 side chains) [compound 260]	< 10 µM	
KKKKKMPKLRFASRIRKIRKKQF [compound 71]	10 to 30 µM	
TKRKRKKQRVKIAYEEIFV [compound 60]	10 to 30 µM	
248 (Ac-RRRRRQHVHIIF; also: homodimer: C-termini of two chains bound to the two amines of a Lys linker) [compound 248]	< 10 µM	
327 (XHRRRQHVRIYFK; not fully specified; Xaa = Acylated Histidine; The side chain of Lysine at position 13 is covalently bound to an Ida linker forming a homodimer of residues 1 through 13.) [compound 327]	< 10 µM	
409 (Ac-QRRRRQAVAIYFK; not fully specified (residue 13, C-terminus); also: homodimer via Ida linker on Lys side chains, linker at 13 via Ida, other end not in the chain) [compound 409]	< 10 µM	
247 (Ac-RRRRHQRVHIIF; also: homodimer: C-termini of two chains bound to the two amines of a Lys linker) [compound 247]	< 10 µM	
KAARKRKKQRVKIAYEEIFVQNM [compound 56]	10 to 30 µM	
KTKRKRKKQRVKIAYAAIFVQNM [compound 48]	> 30 µM	
237 (Ac-RHRRHQRVRIIF; also: dimer via C-terminal Phe to Lys linker) [compound 237]	< 10 µM	
477 (Ac-PRRRSQAVAIYFK(Ida(3)); not fully specified (C-terminus); also: homodimer via Ida linker on Lys13 side chain) [compound 477]	10 to 30 µM	
489 (Ac-PRRRPQAVAIK(Ida″)F; also: homodimer via Ida linker on Lys11 side chain) [compound 489]	< 10 µM	
457 (Ac-PRRRRQAVAIYFK(ATA); reading uncertain; also: homotrimer via Ata linker on Lys13 side chain) [compound 457]	> 30 µM	
319 (Ac-ARRRRQHVHIYFK(Ida)-NH2; also: homodimer via Ida linker on Lys13 side chain) [compound 319]	< 10 µM	
KTKRKRKKQRVKI [compound 38]	> 30 µM	
173 (Ac-ARRRRQRVRIIF; also: homodimer: C-terminal Phe12 of each chain bound to one amino group of a Lys linker) [compound 173]	< 10 µM	
VKIAYEEIFVQNM [compound 43]	> 30 µM	
